Laboratory results taken from patent US8859535B2, “Hydroxy substituted isoquinolinone derivatives” (Novartis AG, priority 2011, dated 2014).

Columns and labels:
[1] = molecular target: T1, human MDM2 protein (amino acids 2-188) (Homo sapiens, UniProt Q00987); experiment: p53-MDM2 TR-FRET assay (p53-MDM2 Assay 1); format: binding; conditions: 1.25 nM MDM2-biotinylated, 10 nM Cy5-p53 peptide; read-out: IC50 (μM) of p53-Hdm2 inhibition (TR-FRET) Assay 1
T1 construct: human MDM2 protein (amino acids 2-188); made in house
Method: (§1) Time Resolved Fluorescence Energy Transfer (TR-FRET) Assay
(§2) The inhibition of p53-MDM2 and p53-MDM4 interactions is measured by time resolved fluorescence energy transfer (TR-FRET). Fluorescence energy transfer (or Foerster resonance energy transfer) describes an energy transfer between donor and acceptor fluorescent molecules. For this assay, human MDM2 protein (amino acids 2-188) and human MDM4 protein (amino acids 2-185), tagged with a C-terminal biotin moiety, are used in combination with a Europium labeled streptavidin (Perkin Elmer, Inc., Waltham, Mass., USA) serving as the donor fluorophore. The p53 derived, Cy5 labeled peptide Cy5-TFSDLWKLL (p53 aa18-26) is the energy acceptor. Upon excitation of the donor molecule at 340 nm, binding interaction between MDM2 or MDM4 and the p53 peptide induces energy transfer and enhanced response at the acceptor emission wavelength at 665 nm. Disruption of the formation of the p53-MDM2 or p53-MDM4 complex due to an inhibitor molecule binding to the p53 binding site of MDM2 or MDM4 results in increased donor emission at 620 nm. The ratiometric FRET assay readout is calculated from the raw data of the two distinct fluorescence signals measured in time resolved mode (fluorescence 665 nm/fluorescence 620 nm×1000).
(§3) After addition of 1.25 nM MDM2-biotinylated or 2.5 nM MDM4-biotinylated (internal preparations), and 0.625 nM Europium labeled streptavidin (Perkin Elmer), the solution is pre-incubated for 15 minutes at room temperature, then 10 nM Cy5-p53 peptide (internal preparation) is added before an incubation at room temperature for 15 minutes prior to reading the plate. For measurement of samples, a Victor II microplate reader (Perkin Elmer) is used with the following settings: Excitation 340 nm, Emission Donor 620 nm and Emission Acceptor 665 nm. IC50 values are calculated by curve fitting using XLfit. If not specified, reagents are purchased from Sigma-Aldrich Chemie GmBH, Buchs, Switzerland.
(§4) This assay was used to evaluate compounds displaying inhibition of p53-MDM2 interaction and p53-MDM4 interaction at IC50s of 0.005 to 50 μM (p53-MDM2 Assay 1 and p53-MDM4 Assay 1, respectively). For selected compounds displaying IC50s between […] on MDM2, a slightly modified assay is used with the following adaptations: 0.1 nM MDM2, 0.1 nM Europium labeled streptavidin and Tecan genios Pro is used as a microplate reader for the fluorescence measurements (p53-MDM2 Assay 2).

[2] = molecular target: T2, human MDM4 protein (amino acids 2-185) (Homo sapiens, UniProt O15151); experiment: p53-MDM4 TR-FRET assay (p53-MDM4 Assay 1); format: binding; conditions: 2.5 nM MDM4-biotinylated, 10 nM Cy5-p53 peptide; read-out: IC50 (μM) of p53-Hdm4 inhibition (TR-FRET) Assay 1
T2 construct: human MDM4 protein (amino acids 2-185); made in house
T2 sequence (O15151 2-185): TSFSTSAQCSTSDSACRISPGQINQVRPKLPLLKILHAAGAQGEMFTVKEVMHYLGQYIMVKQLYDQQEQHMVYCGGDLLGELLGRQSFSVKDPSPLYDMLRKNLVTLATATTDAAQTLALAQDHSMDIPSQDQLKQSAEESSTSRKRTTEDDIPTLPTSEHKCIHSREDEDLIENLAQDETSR
Method: as §1, §2, §3, §4

T1 sequence (Q00987 2-188): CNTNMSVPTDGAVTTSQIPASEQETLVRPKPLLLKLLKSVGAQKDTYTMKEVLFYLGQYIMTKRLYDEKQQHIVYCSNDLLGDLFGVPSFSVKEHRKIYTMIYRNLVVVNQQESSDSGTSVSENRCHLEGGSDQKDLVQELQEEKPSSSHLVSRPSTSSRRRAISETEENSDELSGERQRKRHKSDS

SMILES: COc1cc2c(cc1OC(C)C)[C@H](c1ccc(Cl)cc1)N(c1ccc(C(C)(O)c3ccc(NC(C)=O)cc3)cc1)C(=O)C2 (mixture of isomers) [Example 21, N-[4-(1-{4-[(S)-1-(4-Chloro-phenyl)-7-isopropoxy-6-methoxy-3-oxo-3,4-dihydro-1H-isoquinolin-2-yl]-phenyl}-1-hydroxy-ethyl)-phenyl]-acetamide]
- IC50 [1]: 0.0071 µM
- IC50 [2]: 10.4 µM

SMILES: COc1cc2c(cc1OC(C)C)[C@H](c1ccc(Cl)cc1)N(c1ccc(C(C)(O)c3ccncc3)cc1)C(=O)C2 (stereo partly drawn) [Example 17, (S)-1-(4-Chloro-phenyl)-2-[4-(1-hydroxy-1-pyridin-4-yl-ethyl)-phenyl]-7-isopropoxy-6-methoxy-1,4-dihydro-2H-isoquinolin-3-one]
- IC50 [1]: 0.0068 µM
- IC50 [2]: 7.73 µM

SMILES: COc1cc2c(cc1OC(C)C)[C@H](c1ccc(Cl)cc1)N(c1ccc(C(C)(O)C3CC4CCC(C3)N4C(C)=O)cc1)C(=O)C2 (stereo partly drawn) [Example 104, (S)-2-{4-[1-(8-Acetyl-8-aza-bicyclo[3.2.1]oct-3-yl)-1-hydroxy-ethyl]-phenyl}-1-(4-chloro-phenyl)-7-isopropoxy-6-methoxy-1,4-dihydro-2H-isoquinolin-3-one]
- IC50 [1]: 0.0132 µM
- IC50 [2]: 14.2 µM

SMILES: COc1cc2c(cc1OC(C)C)[C@H](c1ccc(Cl)cc1)N(c1ccc([C@@](C)(O)C3CCN(C(C)=O)CC3)cc1)C(=O)C2 (single isomer, unassigned) [Example 53]
- IC50 [1]: 0.0017 µM
- IC50 [2]: 1.62 µM

SMILES: COc1cccc(C(C)(O)c2ccc(N3C(=O)Cc4cc(OC)c(OC(C)C)cc4[C@@H]3c3ccc(Cl)cc3)cc2)c1 (stereo partly drawn) [Example 1, (S)-1-(4-Chloro-phenyl)-2-{4-[1-hydroxy-1-(3-methoxy-phenyl)-ethyl]-phenyl}-7-isopropoxy-6-methoxy-1,4-dihydro-2H-isoquinolin-3-one]
- IC50 [1]: 0.0432 µM
- IC50 [2]: 70.8 µM

SMILES: COc1cc2c(cc1OC(C)C)[C@H](c1ccc(Cl)cc1)N(c1ccc(C(C)(O)c3ccn(C)n3)cc1)C(=O)C2 (stereo partly drawn) [Example 14, (S)-1-(4-Chloro-phenyl)-2-{4-[1-hydroxy-1-(1-methyl-1H-pyrazol-3-yl)-ethyl]-phenyl}-7-isopropoxy-6-methoxy-1,4-dihydro-2H-isoquinolin-3-one]
- IC50 [1]: 0.0494 µM
- IC50 [2]: 53.7 µM

SMILES: CCN1CCC(C(C)(O)c2ccc(N3C(=O)Cc4cc(OC)c(OC(C)C)cc4[C@@H]3c3ccc(Cl)cc3)cc2)CC1 (stereo partly drawn) [Example 85, (S)-1-(4-Chloro-phenyl)-2-{4-[1-(1-ethyl-piperidin-4-yl)-1-hydroxy-ethyl]-phenyl}-7-isopropoxy-6-methoxy-1,4-dihydro-2H-isoquinolin-3-one]
- IC50 [1]: 0.0048 µM
- IC50 [2]: 4.94 µM

SMILES: CNC(=O)N1CC(C(C)(O)c2ccc(N3C(=O)Cc4cc(OC)c(OC(C)C)cc4[C@@H]3c3ccc(Cl)cc3)cc2)C1 (stereo partly drawn) [Example 67, 3-(1-{4-[(S)-1-(4-Chloro-phenyl)-7-isopropoxy-6-methoxy-3-oxo-3,4-dihydro-1H-isoquinolin-2-yl]-phenyl}-1-hydroxy-ethyl)-azetidine-1-carboxylic acid methylamide]
- IC50 [1]: 0.0152 µM
- IC50 [2]: 16.7 µM

SMILES: COc1cc2c(cc1OC(C)C)[C@H](c1ccc(Cl)cc1)N(c1ccc(C(C)(O)C3CN(C(=O)CO)C3)cc1)C(=O)C2 (stereo partly drawn) [Example 102, (S)-1-(4-Chloro-phenyl)-2-(4-{1-hydroxy-1-[1-(2-hydroxy-acetyl)-azetidin-3-yl]-ethyl}-phenyl)-7-isopropoxy-6-methoxy-1,4-dihydro-2H-isoquinolin-3-one]
- IC50 [1]: 0.0078 µM
- IC50 [2]: 7.38 µM

SMILES: COc1cc2c(cc1OC(C)C)[C@H](c1ccc(Cl)cc1)N(c1ccc([C@](C)(O)C3CCS(=O)(=O)CC3)cc1)C(=O)C2 [Example 167, (S)-1-(4-Chloro-phenyl)-2-{4-[(R)-1-(1,1-dioxo-hexahydro-1-thiopyran-4-yl)-1-hydroxy-ethyl]-phenyl}-7-isopropoxy-6-methoxy-1,4-dihydro-2H-isoquinolin-3-one]
- IC50 [1]: 0.125 µM
- IC50 [2]: 51.1 µM

SMILES: COc1cc2c(cc1OC(C)C)[C@H](c1ccc(Cl)cc1)N(c1ccc(C(C)(O)C3CCOC3)cc1)C(=O)C2 (stereo partly drawn) [Example 48, (S)-1-(4-Chloro-phenyl)-2-{4-[1-hydroxy-1-(tetrahydro-furan-3-yl)-ethyl]-phenyl}-7-isopropoxy-6-methoxy-1,4-dihydro-2H-isoquinolin-3-one]
- IC50 [1]: 0.0432 µM
- IC50 [2]: 44.5 µM

SMILES: COc1cccc(C(O)c2ccc(N3C(=O)Cc4cc(OC)c(OC(C)C)cc4[C@@H]3c3ccc(Cl)cc3)cc2)c1 (stereo partly drawn) [Example 2, (S)-1-(4-Chloro-phenyl)-2-{4-[hydroxy-(3-methoxy-phenyl)-methyl]-phenyl}-7-isopropoxy-6-methoxy-1,4-dihydro-2H-isoquinolin-3-one]
- IC50 [1]: 0.0868 µM
- IC50 [2]: 87 µM

SMILES: COc1cc2c(cc1OC(C)C)[C@H](c1ccc(Cl)cc1)N(c1ccc(C(C)(O)C3CCN(C(=O)C(F)F)CC3)cc1)C(=O)C2 (stereo partly drawn) [Example 87, (S)-1-(4-Chloro-phenyl)-2-(4-{1-[1-(2,2-difluoro-acetyl)-piperidin-4-yl]-1-hydroxy-ethyl}-phenyl)-7-isopropoxy-6-methoxy-1,4-dihydro-2H-isoquinolin-3-one]
- IC50 [1]: 0.0287 µM
- IC50 [2]: 23.9 µM

SMILES: CCC(C)(O)c1ccc(N2C(=O)Cc3cc(OC)c(OC(C)C)cc3[C@@H]2c2ccc(Cl)cc2)cc1 (stereo partly drawn) [Example 3, (S)-1-(4-Chloro-phenyl)-2-[4-(1-hydroxy-1-methyl-propyl)-phenyl]-7-isopropoxy-6-methoxy-1,4-dihydro-2H-isoquinolin-3-one]
- IC50 [1]: 0.0267 µM
- IC50 [2]: 18.9 µM

SMILES: COc1cc2c(cc1OC(C)C)[C@H](c1ccc(Cl)cc1)N(c1ccc(C(O)C3CCCCC3)cc1)C(=O)C2 (stereo partly drawn) [Example 8, (S)-1-(4-Chloro-phenyl)-2-[4-(cyclohexyl-hydroxy-methyl)-phenyl]-7-isopropoxy-6-methoxy-1,4-dihydro-2H-isoquinolin-3-one]
- IC50 [1]: 0.0316 µM
- IC50 [2]: 61.3 µM

SMILES: CCN1CCC(N2CC(C(C)(O)c3ccc(N4C(=O)Cc5cc(OC)c(OC(C)C)cc5[C@@H]4c4ccc(Cl)cc4)cc3)C2)CC1 (stereo partly drawn) [Example 100, (S)-1-(4-Chloro-phenyl)-2-(4-{1-[1-(1-ethyl-piperidin-4-yl)-azetidin-3-yl]-1-hydroxy-ethyl}-phenyl)-7-isopropoxy-6-methoxy-1,4-dihydro-2H-isoquinolin-3-one]
- IC50 [1]: 0.0082 µM
- IC50 [2]: 9.66 µM

SMILES: COc1cc2c(cc1OC(C)C)[C@H](c1ccc(Cl)cc1)N(c1ccc([C@](C)(O)C3CCOCC3)c(F)c1)C(=O)C2 (single isomer, unassigned) [Example 38]
- IC50 [1]: 0.383 µM
- IC50 [2]: 84 µM

SMILES: COc1cc2c(cc1OC(C)C)[C@H](c1ccc(Cl)cc1)N(c1ccc(C3(O)CN(C(C)=O)C3)cc1)C(=O)C2 [Example 57, (S)-2-[4-(1-Acetyl-3-hydroxy-azetidin-3-yl)-phenyl]-1-(4-chloro-phenyl)-7-isopropoxy-6-methoxy-1,4-dihydro-2H-isoquinolin-3-one]
- IC50 [1]: 0.262 µM

SMILES: COc1cc2c(cc1OC(C)C)[C@H](c1ccc(Cl)cc1)N(c1ccc(C(C)(O)c3cccnc3)cc1F)C(=O)C2 (stereo partly drawn) [Example 20, (S)-1-(4-Chloro-phenyl)-2-[2-fluoro-4-(1-hydroxy-1-pyridin-3-yl-ethyl)-phenyl]-7-isopropoxy-6-methoxy-1,4-dihydro-2H-isoquinolin-3-one]
- IC50 [1]: 0.0723 µM
